Experimental data taken from patent US20090281111A1 (Fabre-Kramer Pharmaceuticals, Inc., priority 2008, published 2009).

How the values were obtained:
[1] = 3-OH gepirone concentrations in plasma after administration of gepirone; assay type: in vivo; details: human subjects administered a dose of gepirone, FIG. 2
Method: “Time (H)” represents time after administration.
Each sample corresponds to a 0.5 ml plasma sample, extracted with 6 ml of (2:1) (v/v) hexane:chloroform for 1 hour. After separation by centrifuge, the organic layer is transferred to a 10 ml conical tube and 90 ul of 1% formic acid is added. The tube is vortexed for 10 minutes and centrifuged for 5 minutes. About 80 ul of the formic acid layer is transferred into injection vials for HPLC/MS analysis.

dopaminergic receptors = details: cited from earlier work
Alpha 2C receptor = target: T1, Alpha 2C receptor (Homo sapiens, UniProt P18825); details: cited from earlier work
T1 sequence (P18825 1-462): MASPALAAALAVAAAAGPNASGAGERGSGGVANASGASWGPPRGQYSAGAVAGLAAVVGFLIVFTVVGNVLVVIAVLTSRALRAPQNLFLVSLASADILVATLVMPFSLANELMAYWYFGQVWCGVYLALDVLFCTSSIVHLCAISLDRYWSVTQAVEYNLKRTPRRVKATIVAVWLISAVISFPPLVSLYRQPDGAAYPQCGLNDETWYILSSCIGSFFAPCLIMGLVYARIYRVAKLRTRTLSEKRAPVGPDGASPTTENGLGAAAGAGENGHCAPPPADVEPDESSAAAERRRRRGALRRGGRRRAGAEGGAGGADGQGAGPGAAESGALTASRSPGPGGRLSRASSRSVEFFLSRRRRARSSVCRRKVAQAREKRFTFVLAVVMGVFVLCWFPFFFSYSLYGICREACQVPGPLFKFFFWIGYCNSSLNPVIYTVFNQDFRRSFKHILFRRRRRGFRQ

5-HT1A receptor = target: T2, 5-HT1A receptor (Homo sapiens, UniProt P08908); details: cited from earlier work
T2 sequence (P08908 1-422): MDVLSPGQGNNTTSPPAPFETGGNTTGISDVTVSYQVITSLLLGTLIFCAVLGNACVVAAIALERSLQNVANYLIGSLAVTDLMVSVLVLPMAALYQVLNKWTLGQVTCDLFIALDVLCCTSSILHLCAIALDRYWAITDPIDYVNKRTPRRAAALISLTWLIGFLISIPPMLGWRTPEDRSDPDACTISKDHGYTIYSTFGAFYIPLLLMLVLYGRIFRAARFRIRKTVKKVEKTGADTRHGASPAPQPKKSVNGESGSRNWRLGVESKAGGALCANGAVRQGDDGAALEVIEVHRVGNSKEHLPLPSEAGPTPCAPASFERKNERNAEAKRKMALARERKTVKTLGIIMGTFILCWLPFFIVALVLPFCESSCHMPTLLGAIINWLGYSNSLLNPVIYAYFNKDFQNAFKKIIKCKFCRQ

[2] = system: alpha-adrenergic receptors; details: Alpha 2A, Alpha 2B, Alpha 2C tested; cited from earlier work
5-HT7 receptor = 5-HT7 receptor (Homo sapiens, UniProt P34969); details: compared with 3-OH gepirone; cited from earlier work
[3] = cited from earlier work; for half-life: in vivo
5-HT2A receptor = 5-HT2A receptor (Homo sapiens, UniProt P28223); details: compared with 3-OH gepirone; cited from earlier work
Chain of 5-HT2A receptor (P28223 whole entry): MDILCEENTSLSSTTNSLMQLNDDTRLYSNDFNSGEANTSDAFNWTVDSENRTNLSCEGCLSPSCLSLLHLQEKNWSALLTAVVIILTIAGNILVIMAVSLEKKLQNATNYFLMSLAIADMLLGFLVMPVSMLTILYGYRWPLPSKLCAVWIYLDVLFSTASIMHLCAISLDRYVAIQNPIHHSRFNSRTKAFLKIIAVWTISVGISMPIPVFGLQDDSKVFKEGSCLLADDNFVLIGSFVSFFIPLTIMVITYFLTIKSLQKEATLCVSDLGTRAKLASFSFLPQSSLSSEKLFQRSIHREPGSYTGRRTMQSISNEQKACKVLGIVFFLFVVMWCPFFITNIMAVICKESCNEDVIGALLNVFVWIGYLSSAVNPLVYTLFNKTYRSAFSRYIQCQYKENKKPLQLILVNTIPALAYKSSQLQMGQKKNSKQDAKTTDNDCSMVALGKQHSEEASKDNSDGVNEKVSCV

Chain of 5-HT7 receptor (P34969 whole entry): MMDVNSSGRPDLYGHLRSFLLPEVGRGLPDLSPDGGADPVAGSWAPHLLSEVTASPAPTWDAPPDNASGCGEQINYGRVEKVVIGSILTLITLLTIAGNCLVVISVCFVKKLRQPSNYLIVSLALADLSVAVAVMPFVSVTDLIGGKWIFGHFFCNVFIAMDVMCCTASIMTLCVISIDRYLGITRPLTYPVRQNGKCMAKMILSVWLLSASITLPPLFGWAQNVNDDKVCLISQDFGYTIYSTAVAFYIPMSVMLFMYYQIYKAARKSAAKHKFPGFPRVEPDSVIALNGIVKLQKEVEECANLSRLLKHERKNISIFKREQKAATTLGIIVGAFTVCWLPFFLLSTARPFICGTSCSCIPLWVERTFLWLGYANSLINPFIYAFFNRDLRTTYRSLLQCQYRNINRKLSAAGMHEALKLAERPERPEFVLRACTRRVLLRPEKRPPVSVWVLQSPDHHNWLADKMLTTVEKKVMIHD

CC1(C)CC(=O)N(CCCCN2CCN(c3ncccn3)CC2)C(=O)C1O (centres unmarked) [3-OH gepirone, 4,4,-dimethyl-3-hydroxy-1-[4-[4-(2-pyrimidinyl)-1-piperazinyl]butyl]-2,6-piperidinedione]
plasma levels of 3-OH gepirone over time [1]: available quickly and persists in the plasma for extended periods of time
dopaminergic binding (dopaminergic receptors): insignificant dopaminergic binding
binding at the Alpha 2C receptor (Alpha 2C receptor): weak binding
selectivity among the serotonergic receptor subtypes (5-HT1A receptor): highly selective for the 5-HT1A receptor
affinity at alpha-adrenergic receptors [2]: did not display significant affinity

O=C1CC2(CCCC2)CC(=O)N1CCCCN1CCN(c2ncccn2)CC1 [buspirone]
interaction with the 5-HT7 receptor (5-HT7 receptor): much more specifically and at lower concentrations than does 3-OH gepirone
half-life [3]: very short

CC1(C)CC(=O)N(CCCCN2CCN(c3ncccn3)CC2)C(=O)C1 [gepirone, 4-dimethyl-1-[4-[4-(2-pyrimidinyl)-1-piperazinyl]butyl]-2,6-piperidinedione]
interaction with the 5-HT7 receptor (5-HT7 receptor): much more specifically and at lower concentrations than does 3-OH gepirone
interaction with the 5-HT2A receptor (5-HT2A receptor): much more specifically and at lower concentrations than does 3-OH gepirone
bioavailability ([3]; delivered orally): 14-18%
half-life [3]: very short
